Experimental data from the supplement of paper PMC10307832.

Experiments:
Assay in all cases: relative viability (nuclei count vs DMSO), 5 days (fraction); higher = more cells survive
[1] = compound: CC1(C)CNc2cc(NC(=O)c3cccnc3NCc3ccncc3)ccc21 [Motesanib] + CS(=O)(=O)CCNCc1ccc(-c2ccc3ncnc(Nc4ccc(OCc5cccc(F)c5)c(Cl)c4)c3c2)o1 [Lapatinib] (partner 2 µM)
Summary of the method: (§1)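 Lung cancer cell lines were pin-tool dosed in 1536-well plates on the day after seeding, with either a lone drug or a fixed anchor-drug dose plus five library-drug doses (not always all listed) in √10 steps. Nuclei were counted on 4× images after 5 days. Relative viability is the ratio of treated-well to vehicle-well nuclei counts, with each value a median of duplicate plates.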

[2] = compound: C[C@@]1(C(=O)Nc2ccc(F)nc2)CCCN1c1nc(Nc2cc(C3CC3)n[nH]2)c2cccn2n1 + Cc1cc(Nc2cc(N3CCN(C)CC3)nc(Sc3ccc(NC(=O)C4CC4)cc3)n2)n[nH]1 [Tozasertib] (partner 0.1 µM)
Summary of the method: as §1

[3] = compound: C[C@@]1(C(=O)Nc2ccc(F)nc2)CCCN1c1nc(Nc2cc(C3CC3)n[nH]2)c2cccn2n1 + O=C(c1cc(Cc2n[nH]c(=O)c3ccccc23)ccc1F)N1CCN(C(=O)C2CC2)CC1 [Olaparib] (partner 8 µM)
Summary of the method: as §1

[4] = compound: C[C@@]1(C(=O)Nc2ccc(F)nc2)CCCN1c1nc(Nc2cc(C3CC3)n[nH]2)c2cccn2n1 + Cc1nc(NC(=O)N2CCC[C@H]2C(N)=O)sc1-c1ccnc(C(C)(C)C(F)(F)F)c1 [Alpelisib] (partner 2 µM)
Summary of the method: as §1

Cell Line	relative viability ([1]; first compound 0.01 µM)	relative viability ([1]; first compound 0.03162 µM)	relative viability ([1]; first compound 0.1 µM)	relative viability ([1]; first compound 0.3162 µM)	relative viability ([1]; first compound 1 µM)	relative viability ([2]; first compound 0.04 µM)	relative viability ([2]; first compound 0.1265 µM)	relative viability ([2]; first compound 0.4 µM)	relative viability ([2]; first compound 1.265 µM)	relative viability ([3]; first compound 0.04 µM)	relative viability ([3]; first compound 0.1265 µM)	relative viability ([3]; first compound 0.4 µM)	relative viability ([3]; first compound 1.265 µM)	relative viability ([4]; first compound 0.04 µM)	relative viability ([4]; first compound 0.1265 µM)	relative viability ([4]; first compound 0.4 µM)	relative viability ([4]; first compound 1.265 µM)
NCI-H2228	0.902	1.13	0.848	1.24	1.08	0.258	0.248	0.235	0.178	0.767	0.503	0.426	0.32	0.709	0.518	0.533	0.529
NCI-H2347	0.961	0.776	0.986	1.01	0.838	0.606	0.581	0.512	0.502	0.536	0.569	0.48	0.524	1.17	0.873	0.94	1.11
NCI-H2405		1.05	1.09	1.16	1.12	0.659	0.65	0.5	0.409	0.808	0.611	0.598	0.511	0.785	0.688	0.552	0.573
NCI-H3122	0.991	1.03	0.965	1.03	1.02	0.373	0.541	0.219	0.306	0.633	0.571	0.581	0.723	0.637	0.514	0.631	0.564
PC-3 [JPC-3]	0.465	0.459	0.451	0.42	0.465	0.915	0.882	0.843	0.887	1.23	0.798	1.04	1.1	1.06	0.945	0.893	0.974
PC-14	0.318	0.264	0.336	0.334	0.339	0.572	0.587	0.515	0.464	0.368	0.335	0.319	0.222	0.89	0.828	0.833	0.941
RERF-LC-KJ	0.895	0.876	0.958	0.827	0.853	0.544	0.506	0.33	0.236	0.892	0.858	0.737	0.345	0.708	0.866	0.515	0.787
SK-LU-1	0.844	1.02	0.894	0.961	1.01	0.282	0.318	0.233	0.259	0.414	0.361	0.396	0.403	1.18	0.965	0.825	0.708
SK-MES-1	0.46	0.481	0.418	0.465	0.454	0.979	0.968	0.8	0.207	0.718	0.702	0.557	0.373	0.962	0.676		0.843
SW 1573	1.16	1.09	1	0.929	1.33	0.15	0.16	0.172	0.182	0.38	0.409	0.341	0.253	0.802	0.518	0.523	0.715
